Reference: PubChem BioAssay AID1963443 (Molecular Pharmacology Branch, DTP, NCI, 2024)

System: MDA-MB-231 complex spheroids, growth inhibition
Assay: Anticancer human tumor MDA-MB-231 cell line growth inhibition [Asc];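 further: spheroids exposed to compounds for 7 days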
Conditions: for IC50: curve of first compound; for viability, T/C: stronger effect = lower value
Procedure, shortened: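 Complex spheroids combining tumor cells with HUVEC endothelial cells and human MSCs, at 37 degrees C, 5% CO2; agents tested alone or combined, half-log dilutions from at or near clinical Cmax, or 10 microM if Cmax unknown.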

With `NC(=O)C(=Cn1cnc(-c2cc(C(F)(F)F)cc(C(F)(F)F)c2)n1)c1cncnc1` + CNC(C)C(=O)NC1CN(S(=O)(=O)c2cccc(S(=O)(=O)N3CCC4CCC(C(=O)NC(c5ccccc5)c5ccccc5)N4C(=O)C(NC(=O)C(C)NC)C3)c2)CCC2CCC(C(=O)NC(c3ccccc3)c3ccccc3)N2C1=O as the compound, how does the IC50 (second compound 0.01 µM) read?
The IC50 was under 0.949 nM.

And the IC50 (second compound 0.0316 µM)?
The IC50 was under 0.949 nM.

And the IC50 (second compound 0.1 µM)?
The IC50 was under 0.949 nM.

And the IC50 (second compound 0.316 µM)?
The IC50 was under 0.949 nM.

What about the IC50 (second compound 1 µM) of the same compound?
Its IC50 is under 0.949 nM.

And the viability, T/C (second compound 0.01 µM, first compound 0.000949 µM)?
Its viability, T/C is 3.47%.

And the viability, T/C (second compound 0.01 µM, first compound 0.003 µM)?
The viability, T/C was 3.32%.

And the viability, T/C (second compound 0.01 µM, first compound 0.00949 µM)?
Its viability, T/C is 2.92%.

What about the viability, T/C (second compound 0.01 µM, first compound 0.03 µM) of the same compound?
Its viability, T/C is 3.34%.

What about the viability, T/C (second compound 0.01 µM, first compound 0.0949 µM) of the same compound?
The viability, T/C was 3.01%.

And the viability, T/C (second compound 0.01 µM, first compound 0.3 µM)?
Its viability, T/C is 1.3%.

What about the viability, T/C (second compound 0.0316 µM, first compound 0.000949 µM) of the same compound?
The viability, T/C was 1.67%.

What about the viability, T/C (second compound 0.0316 µM, first compound 0.003 µM) of the same compound?
The viability, T/C was 1.38%.

And the viability, T/C (second compound 0.0316 µM, first compound 0.00949 µM)?
The viability, T/C was 1.57%.

And the viability, T/C (second compound 0.0316 µM, first compound 0.03 µM)?
The viability, T/C was 1.39%.

And the viability, T/C (second compound 0.0316 µM, first compound 0.0949 µM)?
Its viability, T/C is 1.1%.

What about the viability, T/C (second compound 0.0316 µM, first compound 0.3 µM) of the same compound?
The viability, T/C was 0.42%.

And the viability, T/C (second compound 0.1 µM, first compound 0.000949 µM)?
The viability, T/C was 1.05%.

What about the viability, T/C (second compound 0.1 µM, first compound 0.003 µM) of the same compound?
Its viability, T/C is 1.72%.

And the viability, T/C (second compound 0.1 µM, first compound 0.00949 µM)?
The viability, T/C was 1.5%.

What about the viability, T/C (second compound 0.1 µM, first compound 0.03 µM) of the same compound?
The viability, T/C was 1.76%.

And the viability, T/C (second compound 0.1 µM, first compound 0.0949 µM)?
The viability, T/C was 0.66%.

What about the viability, T/C (second compound 0.1 µM, first compound 0.3 µM) of the same compound?
The viability, T/C was 0.29%.

And the viability, T/C (second compound 0.316 µM, first compound 0.000949 µM)?
Its viability, T/C is 1.29%.

What about the viability, T/C (second compound 0.316 µM, first compound 0.003 µM) of the same compound?
The viability, T/C was 1.22%.

And the viability, T/C (second compound 0.316 µM, first compound 0.00949 µM)?
The viability, T/C was 1.39%.

What about the viability, T/C (second compound 0.316 µM, first compound 0.03 µM) of the same compound?
Its viability, T/C is 1.21%.

And the viability, T/C (second compound 0.316 µM, first compound 0.0949 µM)?
Its viability, T/C is 0.77%.

And the viability, T/C (second compound 0.316 µM, first compound 0.3 µM)?
Its viability, T/C is 0.57%.

And the viability, T/C (second compound 1 µM, first compound 0.000949 µM)?
The viability, T/C was 0.82%.

And the viability, T/C (second compound 1 µM, first compound 0.003 µM)?
Its viability, T/C is 1.08%.

And the viability, T/C (second compound 1 µM, first compound 0.00949 µM)?
The viability, T/C was 1.07%.

And the viability, T/C (second compound 1 µM, first compound 0.03 µM)?
The viability, T/C was 0.91%.

What about the viability, T/C (second compound 1 µM, first compound 0.0949 µM) of the same compound?
The viability, T/C was 0.91%.

What about the viability, T/C (second compound 1 µM, first compound 0.3 µM) of the same compound?
Its viability, T/C is 0.37%.

How did the IC50 (second compound 0.01 µM) turn out when `NC1CCC(NC2CC2c2ccccc2)CC1` (stereo not given) + CNC(C)C(=O)NC1CN(S(=O)(=O)c2cccc(S(=O)(=O)N3CCC4CCC(C(=O)NC(c5ccccc5)c5ccccc5)N4C(=O)C(NC(=O)C(C)NC)C3)c2)CCC2CCC(C(=O)NC(c3ccccc3)c3ccccc3)N2C1=O was run?
Its IC50 is under 0.316 nM.

What about the IC50 (second compound 0.0316 µM) of the same compound?
Its IC50 is under 0.316 nM.

And the IC50 (second compound 0.1 µM)?
The IC50 was under 0.316 nM.

And the IC50 (second compound 0.316 µM)?
The IC50 was under 0.316 nM.

What about the IC50 (second compound 1 µM) of the same compound?
The IC50 was under 0.316 nM.

And the viability, T/C (second compound 0.01 µM, first compound 0.000316 µM)?
Its viability, T/C is 4.48%.

What about the viability, T/C (second compound 0.01 µM, first compound 0.001 µM) of the same compound?
Its viability, T/C is 3.37%.

What about the viability, T/C (second compound 0.01 µM, first compound 0.00316 µM) of the same compound?
The viability, T/C was 3.36%.

What about the viability, T/C (second compound 0.01 µM, first compound 0.01 µM) of the same compound?
Its viability, T/C is 4.1%.

And the viability, T/C (second compound 0.01 µM, first compound 0.0316 µM)?
The viability, T/C was 4.51%.

And the viability, T/C (second compound 0.01 µM, first compound 0.1 µM)?
The viability, T/C was 3.46%.

And the viability, T/C (second compound 0.0316 µM, first compound 0.000316 µM)?
Its viability, T/C is 1.91%.

And the viability, T/C (second compound 0.0316 µM, first compound 0.001 µM)?
The viability, T/C was 3.37%.

What about the viability, T/C (second compound 0.0316 µM, first compound 0.00316 µM) of the same compound?
Its viability, T/C is 2.61%.

What about the viability, T/C (second compound 0.0316 µM, first compound 0.01 µM) of the same compound?
The viability, T/C was 2.96%.

What about the viability, T/C (second compound 0.0316 µM, first compound 0.0316 µM) of the same compound?
The viability, T/C was 2.47%.

What about the viability, T/C (second compound 0.0316 µM, first compound 0.1 µM) of the same compound?
Its viability, T/C is 2.27%.

What about the viability, T/C (second compound 0.1 µM, first compound 0.000316 µM) of the same compound?
Its viability, T/C is 2.48%.

And the viability, T/C (second compound 0.1 µM, first compound 0.001 µM)?
The viability, T/C was 2.67%.

What about the viability, T/C (second compound 0.1 µM, first compound 0.00316 µM) of the same compound?
Its viability, T/C is 3.07%.

What about the viability, T/C (second compound 0.1 µM, first compound 0.01 µM) of the same compound?
Its viability, T/C is 2.19%.

And the viability, T/C (second compound 0.1 µM, first compound 0.0316 µM)?
The viability, T/C was 2.11%.

What about the viability, T/C (second compound 0.1 µM, first compound 0.1 µM) of the same compound?
The viability, T/C was 2.38%.

And the viability, T/C (second compound 0.316 µM, first compound 0.000316 µM)?
The viability, T/C was 1.42%.

And the viability, T/C (second compound 0.316 µM, first compound 0.001 µM)?
Its viability, T/C is 3.18%.

And the viability, T/C (second compound 0.316 µM, first compound 0.00316 µM)?
The viability, T/C was 2.55%.

And the viability, T/C (second compound 0.316 µM, first compound 0.01 µM)?
The viability, T/C was 0.99%.

What about the viability, T/C (second compound 0.316 µM, first compound 0.0316 µM) of the same compound?
The viability, T/C was 1.23%.

What about the viability, T/C (second compound 0.316 µM, first compound 0.1 µM) of the same compound?
The viability, T/C was 0.81%.

What about the viability, T/C (second compound 1 µM, first compound 0.000316 µM) of the same compound?
Its viability, T/C is 1.08%.

And the viability, T/C (second compound 1 µM, first compound 0.001 µM)?
Its viability, T/C is 1.04%.

And the viability, T/C (second compound 1 µM, first compound 0.00316 µM)?
Its viability, T/C is 1.62%.

And the viability, T/C (second compound 1 µM, first compound 0.01 µM)?
Its viability, T/C is 0.85%.

And the viability, T/C (second compound 1 µM, first compound 0.0316 µM)?
Its viability, T/C is 0.86%.

And the viability, T/C (second compound 1 µM, first compound 0.1 µM)?
Its viability, T/C is 0.84%.
